Reference: US6613507B1 (priority 2000, dated 2003)

How the values were obtained:
hepatitis C = details: human, in vivo; cited from earlier work
[1] = type: physicochemical; details: pH 7.4
[2] = dog, in vivo; cited from earlier work

| Structure (SMILES) | biochemical and virological markers (hepatitis C) | amino group protonated at physiological pH [1] | increase in blood pressure [2] [%] |
| --- | --- | --- | --- |
| NC12CC3CC(CC(C3)C1)C2 [amantadine, 1-adamantanamine] | improved | over 90% | – |
| CNC[C@H](O)c1cccc(O)c1 [phenylephrine] | – | – | 20 |
